Laboratory results taken from patent publication US20140350119A1, “OPHTHALMIC COMPOSITION COMPRISING GERANYLGERANYLACETONE” (ROHTO PHARMACEUTICAL CO., LTD., priority 2012, published 2014).

Key:
PC12 = experiment: Protective effect against ischemic cell death induced by hypoxia and low glucose (cell viability, Cell Titer-Glo); assay type: cell-based, rat; settings: 30 μM, 2 h, then low glucose, zero percent O2, 8 h, FIG. 1, Tukey-Kramer test
Source text: The progress of visual impairment in glaucoma is associated with retinal ganglion cell (RGC) death due to blood flow failure occurring near the optic nerve (Folia Pharmacol. Jpn. 128, 255-258 (2006)). With the use of PC12, which is a typical neural cell line established from rat adrenal […] pheochromocytoma and used also as a model cell for the functional evaluation of RGC (J Neurosci Res. 2000 May 15; 60(4): 495-503.), the cytoprotective effect of GGA against ischemic cell death induced by hypoxia and low glucose was evaluated.
Test samples were prepared as follows. The test substances were four types of GGAs that contain the all-trans form and the 5Z-mono-cis form at a weight ratio of 10:0, 8:2, 6:4, and 0:10, respectively. […]
After 8 hours of incubation, 100 μL of an equivalent mixture of a cell viability detection reagent Cell Titer-Glo (Promega) and PBS was added to each well and the luminescence produced by the reaction with ATP in living cells was measured with a luminometer (GloMax; Promega). The cell viability was calculated from the measured luminescence by the following formula and the cytoprotective effect of GGA against […] was examined.
Cell viability (%)=100×[(luminescence of base- or GGA-treated group)/(luminescence of non-treated group)]

[1] = system: rat models with glaucoma induced by NMDA; experiment: Protective effect for retinal ganglion cells against nerve damage by NMDA (thickness of inner plexiform layer); assay type: in vivo, Sprague-Dawley (SD) rats
Source text: In recent years the glutamate analogue NMDA (N-methyl-D-aspartate) has been widely reported to be one of causative agents of neurodegenerative diseases including Alzheimer's disease. In the ophthalmic field, NMDA is considered to be involved in optic nerve damage in glaucoma (Brain Research Bulletin, 81 (2010) 349-358). Accordingly, in this experiment rat models with glaucoma induced by NMDA were used to evaluate the neuroprotective effect of GGA.
To Sprague-Dawley (SD) rats, the all-trans form, the 5Z-mono-cis form and teprenone were separately pre-administered by oral administration (Test Example 1), intravitreal administration (Test Example 2) or ocular instillation administration (Test Example 3) and 5 μL of NMDA was administered into the vitreous body to induce nerve damage. For Test Example 2, a marketed therapeutic eye drop for glaucoma, AIPHAGAN (trade name), was intravitreally administered as a positive control once a day for five days. For each of Test Examples, a base not containing GGA or AIPHAGAN was administered as a control in the same manner as described above.
The dosage and regimen of Test Examples 1 to 3 are shown in Table 1 and the constitution of the base used in each tests are shown in Table 2.
Three days after administration of NMDA, the eyeballs were harvested, fixed with half Karnovsky's fixative for 24 hours, embedded in paraffin, thin sectioned and stained with hematoxylin-eosin (HE) to prepare histopathological sections. The histological sections were observed under an optical microscope and the thickness (μm) of the inner plexiform layer (IPL) of the retina was measured. From the thickness of the inner plexiform layer (IPL) of the retina, the neuroprotective effects of the test preparations were evaluated.

Compound: CC(=O)CC/C=C(\C)CC/C=C(\C)CC/C=C(\C)CCC=C(C)C [all-trans form, (5E,9E,13E)-6,10,14,18-tetramethyl-5,9,13,17-nonadecatetrae n-2-one]
- Cytoprotective effect compared with GGA of weight ratio 6:4 (PC12): significantly higher cytoprotective effects
- Neuroprotective effect against nerve damage by NMDA compared with the base (IPL thickness) ([1]; Test Example 1: oral, 800 mg/kg, 2 days, once per day, NMDA 4 mM, FIG. 6): significant neuroprotective effects
- Neuroprotective effect against nerve damage by NMDA compared with the base (IPL thickness) ([1]; Test Example 2: intravitreal, 0.05% w/v, 5 days, once per day, NMDA 40 mM, FIG. 7): significant neuroprotective effects
- Neuroprotective effect compared with AIPHAGAN Ophthalmic Solution 0.1% ([1]; Test Example 2: intravitreal, 0.05% w/v, 5 days, NMDA 40 mM, FIG. 7): significantly superior neuroprotective effect
- Neuroprotective effect against nerve damage by NMDA compared with the base (IPL thickness) ([1]; Test Example 3: ocular instillation, 1% w/v, 5 days, 5 times per day, NMDA 4 mM, FIG. 9): significant neuroprotective effect
